Assay results reported in patent US20250304563A1, “ACTIVATORS OF EFFECTOR T CELLS” (Orum Therapeutics, Inc., priority 2022, published 2025).

How the values were obtained:
Human primary T cells [1] = test: T cell activation: secreted IL-2; type: cell-based; conditions: 48 hours, fold over background normalized to Compound 141A; for IL-2 1 nM: 1 nM compound; for IL-2 10 nM: 10 nM compound; for IL-2 100 nM: 100 nM compound
Procedure: (§1) Human primary T cells were isolated from commercially available frozen peripheral blood mononuclear cells (HemaCare Corporation) or from fresh LeukoPaks (Research Blood Components). T cells were isolated through depletion of non-T cells using negative selection kit according to the manufacturer's protocol (Miltenyi Biotec, Human Pan T Cell Isolation Kit, 130-096-535). Isolated cells were cultured overnight at 37° C. with 5% CO2 and plated at 1×10^5 cells per well in XVivo-15 serum-free media (Lonza, 04-418Q) into 96 well plates coated with anti-CD3 (OKT3) antibody (ThermoFisher, 16-0037-85). To coat the plates for T cell capture, anti-CD3 antibody was diluted in PBS at 10 μg/mL and 100 μl added to each well. Plates were incubated at 4° C. overnight or at 37° C. for 2 hours and washed once with PBS before use. Serial dilutions of each compound were added in duplicates to the T cells to assess their effect on T cell activation. T cells treated with 5 μg/mL of CD28 antibody (ThermoFisher, 16-0289-85) or T cells stimulated by CD3 only were used as a control. Plates were incubated with the Cbl-b inhibitors for 48 hours at 37° C. with 5% CO2, and supernatants were subsequently analyzed for levels of the activation induced secreted cytokines IL-2 or IFN-y (BD Biosciences CBA Flex Beads, 558269, 558270). T cells were additionally stained with anti-CD69 antibody (Invitrogen, 12-0699-42 which labels a T cell activation associated membrane protein to and surface expression was measured by flow cytometry (ThermoFisher Attune NxT).
(§2) To control for natural inter-donor variability in T cell responses intrinsic to using primary human donor derived cells, secreted IL-2 and IFN-y measurements for each test compound were reported as the fold increase of the compound treated levels over background (antiCD3/CD28 treatment only) normalized to the values obtained for Compound 141A. Results for compound treatment-induced changes in CD69 levels are similarly reported as the fold increase due to compound treatment over anti-CD3 stimulated background only, normalized to values obtained for Compound 141A.
Normalized T cell IL-2 responses were sorted into ranges as follows: fold over background values between 1.41 and 1.8: range “X”, between 0.80 and 1.40: range “A”, values between 0.31 and 0.79: range “B” values between 0.10 and 0.30: range “C”, values between 0.01 and 0.09: range “D.”

Human primary T cells [2] = test: T cell activation: secreted IFN-y; type: cell-based; conditions: 48 hours, fold over background normalized to Compound 141A; for IFN-y 1 nM: 1 nM compound; for IFN-y 10 nM: 10 nM compound; for IFN-y 100 nM: 100 nM compound
Procedure: as §1, §2
Normalized T cell IFN-y responses were sorted into ranges as follows: fold over background between 1.10 and 2.00: range “A”, values between 0.31 and 1.00: range “B;” values between 0.10 and 0.30: range “C”, and values between 0.01 and 0.09: range “D.”

[3] = target: Cbl-b (36-427 aa truncated form, N-terminus Avi-tag) (Homo sapiens (Human), UniProt Q13191); test: Cbl-b binding: TR-FRET displacement of BODIPY-FL probe
Method in brief: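 IC50 from loss of terbium–BODIPY-FL TR-FRET signal as compounds compete off a fluorescent Cbl-b inhibitor probe (1 uM) for 1 h at RT. Protein: N-Avi-tagged human Cbl-b 36-427 on streptavidin-terbium, 20 mM HEPES pH 7.5 buffer.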

Human primary T cells [4] = test: T cell activation: CD69 surface expression by flow cytometry; type: cell-based; conditions: fold over anti-CD3 stimulated background normalized to Compound 141A; for CD69 10 nM: 10 nM compound; for CD69 100 nM: 100 nM compound
Procedure: as §1, §2
Similarly, bins for normalized CD69 levels were sorted into ranges as follows: fold over background values between 1.11 and 1.6: range “X”, values between 0.81 and 1.10: range “A”; values between 0.61 and 0.80: range “B;” values between 0.30 and 0.60: range “C”.

Cbl-b (36-427 aa truncated form, N-terminus Avi-tag), sequence (Q13191 36-427): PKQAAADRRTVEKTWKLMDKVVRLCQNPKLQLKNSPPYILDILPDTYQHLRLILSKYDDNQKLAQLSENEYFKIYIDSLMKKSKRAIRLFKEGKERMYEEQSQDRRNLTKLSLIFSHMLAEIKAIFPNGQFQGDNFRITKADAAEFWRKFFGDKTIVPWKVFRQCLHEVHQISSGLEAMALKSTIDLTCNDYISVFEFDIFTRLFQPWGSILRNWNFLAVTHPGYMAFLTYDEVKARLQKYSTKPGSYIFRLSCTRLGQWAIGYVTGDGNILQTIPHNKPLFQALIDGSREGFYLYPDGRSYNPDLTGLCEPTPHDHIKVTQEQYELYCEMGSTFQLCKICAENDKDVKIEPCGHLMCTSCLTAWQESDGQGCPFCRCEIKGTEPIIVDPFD

| SMILES | IL-2 1 nM (Human primary T cells [1]) | IL-2 10 nM (Human primary T cells [1]) | IL-2 100 nM (Human primary T cells [1]) | IFN-y 1 nM (Human primary T cells [2]) | IFN-y 10 nM (Human primary T cells [2]) | IFN-y 100 nM (Human primary T cells [2]) | IC50 [3] | CD69 10 nM (Human primary T cells [4]) | CD69 100 nM (Human primary T cells [4]) |
| --- | --- | --- | --- | --- | --- | --- | --- | --- | --- |
| C[C@H]1CCCN(Cc2cc3c(c(C(F)(F)F)c2)CN(c2cc(C4(Cc5nncn5C)COC4)cc(NCCC#N)n2)C3=O)C1.O=CO [Compound 110, 3-[(4-{3-[(4-methyl-1,2,4-triazol-3-yl)methyl]oxetan-3-yl}-6-(6-{[(3S)-3-methylpiperidin-1-yl]methyl}-1-oxo-4-(trifluoromethyl)-3H-isoindol-2-yl)pyridin-2-yl)amino]propanenitrile; formic acid] | C (values between 0.10 and 0.30: range “C”) | B (values between 0.31 and 0.79: range “B”) | B (values between 0.31 and 0.79: range “B”) | B (values between 0.31 and 1.00: range “B;”) | B (values between 0.31 and 1.00: range “B;”) | B (values between 0.31 and 1.00: range “B;”) | 1 to 5 nM | B (values between 0.61 and 0.80: range “B;”) | A (values between 0.81 and 1.10: range “A”) |
| CCNc1cc(C2(Cc3nncn3C)COC2)cc(N2Cc3c(cc(CN4CCC[C@H](CSC)C4)cc3C(F)(F)F)C2=O)n1 [Compound 111, 2-[6-(ethylamino)-4-{3-[(4-methyl-1,2,4-triazol-3-yl)methyl]oxetan-3-yl}pyridin-2-yl]-6-{[(3S)-3-[(methylsulfanyl)methyl]piperidin-1-yl]methyl}-4-(trifluoromethyl)-3H-isoindol-1-one] | C (values between 0.10 and 0.30: range “C”) | B (values between 0.31 and 0.79: range “B”) | B (values between 0.31 and 0.79: range “B”) | B (values between 0.31 and 1.00: range “B;”) | B (values between 0.31 and 1.00: range “B;”) | B (values between 0.31 and 1.00: range “B;”) | 5.01 to 20 nM | B (values between 0.61 and 0.80: range “B;”) | A (values between 0.81 and 1.10: range “A”) |
| CCSc1cc(C2(c3nncn3C)CC(C)C2)cc(N2Cc3c(cc(CN4CCC[C@H](C)C4)cc3C(F)(F)F)C2=O)n1 (stereo partly drawn) [Compound 112, 2-[6-(ethylsulfanyl)-4-[(1r,3s)-3-methyl-1-(4-methyl-1,2,4-triazol-3-yl)cyclobutyl]pyridin-2-yl]-6-{[(3S)-3-methylpiperidin-1-yl]methyl}-4-(trifluoromethyl)-3H-isoindol-1-one] | C (values between 0.10 and 0.30: range “C”) | C (values between 0.10 and 0.30: range “C”) | B (values between 0.31 and 0.79: range “B”) | C (values between 0.10 and 0.30: range “C”) | B (values between 0.31 and 1.00: range “B;”) | B (values between 0.31 and 1.00: range “B;”) | 20 to 100 nM | C (values between 0.30 and 0.60: range “C”) | B (values between 0.61 and 0.80: range “B;”) |
| CCSc1cc(C2(c3nncn3C)CC(C)C2)cc(N2Cc3c(cc(CN4CCC[C@H](C)C4)cc3C(F)(F)F)C2=O)n1 (stereo partly drawn) [Compound 113, 2-[6-(ethylsulfanyl)-4-[(1s,3r)-3-methyl-1-(4-methyl-1,2,4-triazol-3-yl)cyclobutyl]pyridin-2-yl]-6-{[(3S)-3-methylpiperidin-1-yl]methyl}-4-(trifluoromethyl)-3H-isoindol-1-one] | C (values between 0.10 and 0.30: range “C”) | B (values between 0.31 and 0.79: range “B”) | B (values between 0.31 and 0.79: range “B”) | C (values between 0.10 and 0.30: range “C”) | B (values between 0.31 and 1.00: range “B;”) | B (values between 0.31 and 1.00: range “B;”) | 20 to 100 nM | B (values between 0.61 and 0.80: range “B;”) | A (values between 0.81 and 1.10: range “A”) |
| C[C@H]1CCCN(Cc2cc3c(c(C(F)(F)F)c2)CN(c2cc(C4(Cc5nncn5C)COC4)cc(C#N)n2)C3=O)C1 [Compound 115, 4-{3-[(4-methyl-1,2,4-triazol-3-yl)methyl]oxetan-3-yl}-6-(6-{[(3S)-3-methylpiperidin-1-yl]methyl}-1-oxo-4-(trifluoromethyl)-3H-isoindol-2-yl)pyridine-2-carbonitrile] | C (values between 0.10 and 0.30: range “C”) | C (values between 0.10 and 0.30: range “C”) | B (values between 0.31 and 0.79: range “B”) | C (values between 0.10 and 0.30: range “C”) | C (values between 0.10 and 0.30: range “C”) | B (values between 0.31 and 1.00: range “B;”) | 100 to 1000 nM | C (values between 0.30 and 0.60: range “C”) | B (values between 0.61 and 0.80: range “B;”) |
| C=CC(=O)NCc1cc(C2(Cc3nncn3C)COC2)cc(N2Cc3c(cc(CN4CCC[C@H](C)C4)cc3C(F)(F)F)C2=O)n1 [Compound 116, N-[(4-{3-[(4-methyl-1,2,4-triazol-3-yl)methyl]oxetan-3-yl}-6-(6-{[(3S)-3-methylpiperidin-1-yl]methyl}-1-oxo-4-(trifluoromethyl)-3H-isoindol-2-yl)pyridin-2-yl)methyl]prop-2-enamide] | C (values between 0.10 and 0.30: range “C”) | C (values between 0.10 and 0.30: range “C”) | B (values between 0.31 and 0.79: range “B”) | C (values between 0.10 and 0.30: range “C”) | C (values between 0.10 and 0.30: range “C”) | B (values between 0.31 and 1.00: range “B;”) | 5.01 to 20 nM | C (values between 0.30 and 0.60: range “C”) | B (values between 0.61 and 0.80: range “B;”) |
| CCNc1cc(C2(Cc3nncn3C)COC2)cc(N2Cc3c(cc(C(CSC)N4CCC[C@H](C)C4)cc3C(F)(F)F)C2=O)n1.O=C(O)C(F)(F)F (stereo partly drawn) [Compound 117, 2-[6-(ethylamino)-4-{3-[(4-methyl-1,2,4-triazol-3-yl)methyl]oxetan-3-yl}pyridin-2-yl]-6-{1-[(3S)-3-methylpiperidin-1-yl]-2-(methylsulfanyl)ethyl}-4-(trifluoromethyl)-3H-isoindol-1-one; trifluoroacetic acid] | C (values between 0.10 and 0.30: range “C”) | C (values between 0.10 and 0.30: range “C”) | C (values between 0.10 and 0.30: range “C”) | C (values between 0.10 and 0.30: range “C”) | C (values between 0.10 and 0.30: range “C”) | B (values between 0.31 and 1.00: range “B;”) | 20 to 100 nM | C (values between 0.30 and 0.60: range “C”) | B (values between 0.61 and 0.80: range “B;”) |
